US20220177891A1, “HIPK INHIBITORS AND METHODS OF USE THEREOF” (Board of Regents, The University of Texas System, priority 2019, published 2022)

How the values were obtained:
HIPK4 [1] = target: T1, HIPK4 (Homo sapiens, UniProt Q8NE63); assay: HIPK4 kinase inhibition by VIB-MDA compounds (FIG. 5, 6); assay type: biochemical; conditions: for potency and specificity for HIPK4: Table 1, FIG. 5
T1 sequence (Q8NE63 1-616): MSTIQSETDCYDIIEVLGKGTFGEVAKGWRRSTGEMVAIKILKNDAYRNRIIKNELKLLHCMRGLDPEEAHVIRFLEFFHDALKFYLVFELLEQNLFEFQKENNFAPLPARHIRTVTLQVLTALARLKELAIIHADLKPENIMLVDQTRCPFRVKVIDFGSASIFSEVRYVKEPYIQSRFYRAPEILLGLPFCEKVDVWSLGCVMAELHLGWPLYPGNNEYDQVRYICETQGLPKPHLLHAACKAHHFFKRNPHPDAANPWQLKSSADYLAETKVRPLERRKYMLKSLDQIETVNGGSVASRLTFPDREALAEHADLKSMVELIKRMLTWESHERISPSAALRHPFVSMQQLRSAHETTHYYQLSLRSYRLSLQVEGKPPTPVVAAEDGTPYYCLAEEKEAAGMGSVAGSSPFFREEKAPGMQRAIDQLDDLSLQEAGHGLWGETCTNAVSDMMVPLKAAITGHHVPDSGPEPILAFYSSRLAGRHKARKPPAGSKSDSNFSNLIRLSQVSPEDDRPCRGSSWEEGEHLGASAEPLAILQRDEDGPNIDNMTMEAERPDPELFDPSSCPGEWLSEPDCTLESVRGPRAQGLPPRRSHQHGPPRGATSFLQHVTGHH

[2] = system: MDA-MB-231 cells overexpressing HIPK4; assay: Transwell migration of HIPK4-overexpressing MDA-MB-231 cells (FIG. 11A); assay type: cell-based, human; conditions: MDA-MB-231 cells overexpressing HIPK4, FIG. 11A
Experimental: The in vitro migration and invasion assay was carried out using transwell chamber. Briefly, 0.2-2.0×10^5 cells/ml cells were suspended in serum-free medium with 5% bovine serum albumin and then were placed in the upper compartment, and medium with 5% fetal bovine serum was added in the lower compartment. Following incubation in cell culture incubator for 6-32 h, non-migratory and noninvasive cells on the upper surface were gently removed by a cotton swab. The cells on the bottom of membrane were stained with cell stain solution at room temperature for 10 min. Images of the invading cells were taken with at least three individual fields per chamber by a fluorescent inverted microscope (Olympus IX81 Motorized Inverted Microscope, Japan). The chambers were transferred to an empty well, and 200 μL of Extraction Solution was added to each well. After incubating 10 minutes on an orbital shaker, 100 μL of solution was transferred from each well to a 96-well microtiter plate for measurement under OD 560 nm in a plate reader.
(§1) Cells were plated into 6-well plate and grown for 1-2 days until reaching 70-80% confluence. Transfection of cells with HIPK4 cDNA was performed utilizing FuGENE® HD Transfection reagent. An amount of 2.5 μg of DNA and 7.5 μL of FuGENE® HD reagent were separately pipeted into 140 μL opti-MEM medium; incubate the FuGENE® HD transfection reagent/DNA mixture for 10-15 minutes at room temperature. Then the mixture was applied onto cells for 7 h in cell culture incubator. The transfection was stopped by replacing medium with complete medium. After 48 h, cells were harvest for further analysis.

HIPK and FAK/pFAK = assay: Western blot of HIPK4-overexpressing triple negative breast cancer cells (FIG. 11B); assay type: cell-based, human
Experimental: as §1
(§2) Briefly, desired cells were harvested and lysed. The protein concentration in the lysates was quantified using the Bradford method with bovine serum albumin as standard. An equal amount of protein of 49 μg was separated by electrophoresis on SDS-polyacrylamide gels and transferred to PVDF membranes. After blocking with 5% nonfat milk, the membranes were incubated with the primary antibodies overnight at the following dilution: HIPK4 (1:500) and β-actin (1:20000). Subsequently, the membranes were incubated with appropriate secondary antibodies. The immunoreactive bands were visualized using enhanced chemiluminescence, as recommended by the manufacturer.

HIPK4 [3] = target: T1, HIPK4; assay: Western blot of HIPK4 protein level with VIB-MDA compounds (FIG. 9); assay type: cell-based; design: endogenous in cells; context is GI101A and derivative cell lines
Experimental: as §2

DDR2 (Tyro10) = target: T2, DDR2 (Tyro10) (Homo sapiens, UniProt Q16832); assay: DDR2 kinase inhibition by VIB-MDA compounds (FIG. 5, 6B); assay type: biochemical
T2 sequence (Q16832 22-855): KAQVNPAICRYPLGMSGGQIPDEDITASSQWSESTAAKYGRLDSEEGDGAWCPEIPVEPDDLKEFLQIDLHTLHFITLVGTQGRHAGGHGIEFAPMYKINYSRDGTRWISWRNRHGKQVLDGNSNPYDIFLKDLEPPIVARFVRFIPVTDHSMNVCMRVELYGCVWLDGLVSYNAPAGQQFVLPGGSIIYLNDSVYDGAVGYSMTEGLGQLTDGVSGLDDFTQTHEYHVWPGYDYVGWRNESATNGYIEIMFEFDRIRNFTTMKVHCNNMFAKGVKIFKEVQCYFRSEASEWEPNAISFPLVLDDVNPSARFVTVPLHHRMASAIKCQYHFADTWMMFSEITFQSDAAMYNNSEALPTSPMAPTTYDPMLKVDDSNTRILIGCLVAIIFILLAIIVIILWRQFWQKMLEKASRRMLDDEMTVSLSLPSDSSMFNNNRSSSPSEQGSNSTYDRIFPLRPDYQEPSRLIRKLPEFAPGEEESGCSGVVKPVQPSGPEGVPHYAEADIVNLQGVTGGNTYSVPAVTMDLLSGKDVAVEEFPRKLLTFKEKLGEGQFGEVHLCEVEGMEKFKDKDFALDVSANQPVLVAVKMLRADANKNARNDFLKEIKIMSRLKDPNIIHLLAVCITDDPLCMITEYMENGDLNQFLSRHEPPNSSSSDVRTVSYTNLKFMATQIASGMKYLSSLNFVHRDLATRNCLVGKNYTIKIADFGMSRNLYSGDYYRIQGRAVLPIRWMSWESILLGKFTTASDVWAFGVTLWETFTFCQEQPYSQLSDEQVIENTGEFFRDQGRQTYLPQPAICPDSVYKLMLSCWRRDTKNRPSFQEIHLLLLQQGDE

Transport into cells = assay type: cell-based
Tyro3 = target: T3, Tyro3 (Homo sapiens, UniProt Q06418); assay: Tyro3 kinase inhibition (FIG. 5); assay type: biochemical
T3 sequence (Q06418 41-890): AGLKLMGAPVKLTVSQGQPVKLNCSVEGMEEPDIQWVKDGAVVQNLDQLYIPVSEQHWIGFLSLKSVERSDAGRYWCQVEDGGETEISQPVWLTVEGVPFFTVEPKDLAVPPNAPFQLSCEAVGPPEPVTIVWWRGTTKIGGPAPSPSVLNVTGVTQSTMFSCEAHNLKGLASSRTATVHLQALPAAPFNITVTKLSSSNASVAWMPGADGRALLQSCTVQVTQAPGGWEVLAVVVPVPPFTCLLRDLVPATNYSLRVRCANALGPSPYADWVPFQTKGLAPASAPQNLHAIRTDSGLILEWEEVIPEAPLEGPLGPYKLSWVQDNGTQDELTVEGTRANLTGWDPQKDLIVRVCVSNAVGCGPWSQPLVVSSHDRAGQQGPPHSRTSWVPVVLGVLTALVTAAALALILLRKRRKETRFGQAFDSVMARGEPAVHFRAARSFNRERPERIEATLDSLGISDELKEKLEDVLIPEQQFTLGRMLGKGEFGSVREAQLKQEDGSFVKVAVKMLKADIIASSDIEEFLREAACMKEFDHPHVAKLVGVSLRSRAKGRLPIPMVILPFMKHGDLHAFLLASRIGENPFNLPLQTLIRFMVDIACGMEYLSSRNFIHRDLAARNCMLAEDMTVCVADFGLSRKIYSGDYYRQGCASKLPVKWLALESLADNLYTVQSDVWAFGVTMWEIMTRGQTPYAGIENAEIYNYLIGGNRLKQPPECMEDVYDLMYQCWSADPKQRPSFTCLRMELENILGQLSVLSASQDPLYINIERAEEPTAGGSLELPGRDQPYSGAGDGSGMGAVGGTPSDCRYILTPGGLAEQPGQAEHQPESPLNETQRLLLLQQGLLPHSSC

[4] = target: Breast Tumor Kinase (BRK) (Homo sapiens, UniProt Q13882); assay: Breast Tumor Kinase inhibition (FIG. 5); assay type: biochemical
Sequence of Breast Tumor Kinase (BRK) (Q13882 whole entry, species assumed): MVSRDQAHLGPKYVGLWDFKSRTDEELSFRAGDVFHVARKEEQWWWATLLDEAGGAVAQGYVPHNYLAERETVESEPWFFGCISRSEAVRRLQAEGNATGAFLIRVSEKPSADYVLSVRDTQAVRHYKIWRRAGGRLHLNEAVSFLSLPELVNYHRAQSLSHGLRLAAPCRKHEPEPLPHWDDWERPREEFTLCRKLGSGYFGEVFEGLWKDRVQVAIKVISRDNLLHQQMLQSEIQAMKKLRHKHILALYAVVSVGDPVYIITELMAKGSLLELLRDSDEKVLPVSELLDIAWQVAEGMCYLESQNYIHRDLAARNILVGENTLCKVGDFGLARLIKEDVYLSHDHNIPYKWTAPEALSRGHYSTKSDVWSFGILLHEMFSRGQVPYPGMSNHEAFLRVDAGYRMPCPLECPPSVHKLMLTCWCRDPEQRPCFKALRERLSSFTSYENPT

| SMILES | potency and specificity for HIPK4 (HIPK4 [1]) | migration from HIPK-overexpression [2] | expression of HIPK and FAK/pFAK (HIPK and FAK/pFAK) | inhibition of HIPK4 expression (HIPK4 [3]) | potency for HIPK4 relative to the other VIB-MDA compounds (HIPK4 [1]; FIG. 5) | blocking HIPK4 kinase activity (HIPK4 [1]; FIG. 6) | IC50 (HIPK4 [1]; FIG. 6B) | specificity for HIPK4 compared to Sorafenib (HIPK4 [1]; kinase inhibition profile, FIG. 6A) | potency for DDR2 relative to the other VIB-MDA compounds (DDR2 (Tyro10); FIG. 5) | IC50 (DDR2 (Tyro10); FIG. 6B, second most inhibited kinase) | transport into cells (Transport into cells) | potency for Tyro3 relative to the other VIB-MDA compounds (Tyro3) | potency for BRK relative to the other VIB-MDA compounds [4] |
| --- | --- | --- | --- | --- | --- | --- | --- | --- | --- | --- | --- | --- | --- |
| CNC(=O)c1cc(Oc2ccc(NC(=O)c3nc(SC)[nH]c3-c3ccc(F)cc3)cc2)ccn1 [VIB-MDA-001] | extremely potent and highly specific for HIPK4 | significantly inhibit | significantly inhibit | Selective inhibition | – | – | – | – | – | – | – | – | – |
| CNC(=O)c1cc(Oc2ccc(NC(=O)c3nc(S(C)(=O)=O)sc3-c3ccc(F)cc3)cc2)ccn1 [VIB-MDA-003] | extremely potent and highly specific for HIPK4 | significantly inhibit | significantly inhibit | Selective inhibition | – | – | – | – | – | – | – | – | – |
| CNC(=O)c1cc(Oc2ccc(NC(=O)c3nc(SC)oc3-c3ccc(F)cc3)cc2)ccn1 [VIB-MDA-002] | extremely potent and highly specific for HIPK4 | significantly inhibit | significantly inhibit | Selective inhibition | highest potency | high efficacy | 15 nM | greatly increased specificity | highest potency | 100 nM | excellent transport into cells | highest potency | highest potency |
